# From PubChem BioAssay AID602191 (Broad Institute, 2012)
# Calls of active or inactive are those of the source.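 The calls were made as follows: active = fitted curve reaches 40% activation at a concentration no higher than the top valid tested dose; inconclusive = flat fit between 30% and 70% activation, or poor fit; inactive = uptake decrease, flat fit within 30% of zero, the rest.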
# Target: Scavenger receptor class B member 1 (Mus musculus) (UniProt Q61009)
# Assay: activators of SR-BI-mediated HDL uptake, dose response, cell-based, ldlA[mSR-BI] CHO, DiI fluorescence, cherry-pick (AID 602191);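 also: cell fluorescence from internalized DiI-labeled HDL after washing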;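 as to AC40: potency of activators raising HDL uptake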;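 as to activation (HDL uptake increase): 0% = median of DMSO wells and 100% = twice the DMSO signal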
# Settings: ldlA[mSR-BI] CHO cells, 3 h
# Scavenger receptor class B member 1 (Mus musculus), sequence (Q61009 whole entry, looked up): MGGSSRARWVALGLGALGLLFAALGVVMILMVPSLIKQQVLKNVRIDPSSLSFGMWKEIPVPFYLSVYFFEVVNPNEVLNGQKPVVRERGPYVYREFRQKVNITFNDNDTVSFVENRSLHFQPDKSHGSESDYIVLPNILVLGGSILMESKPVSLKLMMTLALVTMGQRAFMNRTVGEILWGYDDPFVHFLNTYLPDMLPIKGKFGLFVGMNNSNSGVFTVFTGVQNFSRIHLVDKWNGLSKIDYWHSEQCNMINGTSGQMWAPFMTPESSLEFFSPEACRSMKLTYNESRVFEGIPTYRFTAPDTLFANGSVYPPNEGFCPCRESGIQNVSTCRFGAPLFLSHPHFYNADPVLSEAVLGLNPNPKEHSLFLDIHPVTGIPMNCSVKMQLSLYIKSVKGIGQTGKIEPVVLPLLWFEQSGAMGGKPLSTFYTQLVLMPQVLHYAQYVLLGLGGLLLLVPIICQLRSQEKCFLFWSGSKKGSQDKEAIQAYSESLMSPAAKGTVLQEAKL
row,Structure (SMILES),AC40
1,COc1ccc(OC)c(S(=O)(=O)NCCCN2CCCC2=O)c1,> 35 µM (inactive)

# Same assay, conditions: ldlA[mSR-BI] CHO cells, 3 h, at 35 µM (top of the series)
row,Structure (SMILES),activation (HDL uptake increase)
1,O=C(CCC(=O)OCC(=O)c1ccc([N+](=O)[O-])cc1)Nc1ccccc1Cl,-5.05% (inactive)
2,Cc1ccccc1-c1nnc(SCC(=O)Nc2c(C)n(C)n(-c3ccccc3)c2=O)o1,-18.8% (inactive)
3,CN(C(=O)COC(=O)c1cccc(S(=O)(=O)N2CCOCC2)c1)C1CCS(=O)(=O)C1 (centres undefined),5.01% (inactive)
4,CC(=O)N1CCN(S(=O)(=O)c2cccc(C(=O)Nc3cc(C(F)(F)F)ccc3N3CCOCC3)c2)CC1,-3.42% (inactive)
5,O=C(CSc1nnc(CCCOc2ccc(Cl)cc2Cl)o1)Nc1ccc(C(=O)O)cc1,-4.13% (inactive)
6,CN(C)CCN(C(=O)CN1C(=O)c2ccccc2C1=O)c1nc2cc3c(cc2s1)OCCO3,-2.04% (inactive)
7,Cc1noc(/C=C/N(C)C)c1S(=O)(=O)N1CCCC(C(=O)NCc2ccco2)C1 (centres undefined),-1.39% (inactive)
8,COC(=O)Cc1csc(Nc2ccccc2)n1,0.176% (inactive)
9,COc1ccccc1NC(=O)CCN1CCCCCC1,-12.4% (inactive)
10,CCOC(=O)[C@H]1[C@H]2COc3ccccc3[C@@H]2N2C(=O)CN(Cc3ccccc3)C(=O)[C@@]12C,-9.27% (inactive)
11,O=C(CCCc1nc2ccccc2s1)NCc1ccccc1,-3.71% (inactive)
12,O=C(Cn1c(C(=O)NCCCN2CCOCC2)cc2sccc21)c1ccccc1,0.656% (inactive)
13,CC(Oc1ccccc1)C(=O)Nc1cccc(F)c1 (centres undefined),5.9% (inactive)
14,COC(=O)[C@@]12CCCCN1[C@H](c1ccc(-c3ccc(C(C)=O)cc3)c(OC)c1)[C@@H]1C(=O)N(C)C(=O)[C@@H]12,-14% (inactive)
15,Clc1ccc2nc(CN3CCCCCC3)cn2c1,0.923% (inactive)
16,Cc1ccc(O)c(NC(=S)NC(=O)c2ccc(-c3ccc(Cl)cc3)o2)c1,-9.38% (inactive)
17,CCOC(=O)C1CCCN(C(=O)c2cc(S(=O)(=O)N3CCCCCC3)ccc2OC)C1 (centres undefined),-9.78% (inactive)

row,Structure (SMILES),activation (HDL uptake increase)
1,O=C(Cn1nc(-c2ccccc2)ccc1=O)Nc1ccc(-n2cnnn2)cc1,12% (inactive)
2,Cc1cc(S(=O)(=O)NCCc2ccccc2)c(C)s1,-1.19% (inactive)
3,COCCNC(=O)c1cnn2c1NC(c1ccco1)CC2C(F)(F)F (centres undefined),-4% (inactive)
4,CC(=O)NC(Cc1ccccc1)C(=O)OCC(=O)c1ccccc1 (centres undefined),-12% (inactive)
5,CC(C)Cc1cc(C(=O)NCc2ccco2)no1,-10.4% (inactive)
6,COc1ccc(NC(=O)C(NC(=O)Cc2cccs2)c2ccc(C)cc2)cc1 (centres undefined),2.03% (inactive)
7,CC(C)=C1C2CCC1C(C(=O)NCCc1ccccc1)C2C(=O)O (centres undefined),-7.43% (inactive)
8,CNC[C@H]1Oc2c(NS(=O)(=O)c3ccc(OC)cc3)cccc2C(=O)N([C@H](C)CO)C[C@H]1C,9.97% (inactive)
9,COc1ccc(OC)c(NC(=O)c2c(NC(=O)CCC(=O)O)sc3c2CCCCC3)c1,-20.2% (inactive)
10,Cc1cccc(CCNS(=O)(=O)c2ccc3c(c2)NC(=O)CO3)c1,11.6% (inactive)
11,CCC[C@@H](CNC)NC[C@H](Cc1ccccc1)NCCCCc1ccccc1,-3.49% (inactive)
12,O=C(COC(=O)CNC(=O)c1ccc(Cl)cc1Cl)NCc1ccco1,-5.97% (inactive)
13,Cc1ccc(C(C(=O)NC2CCCC2)N(Cc2ccc(F)cc2)C(=O)c2csnn2)o1 (centres undefined),6.32% (inactive)
14,Cc1ccc(C(=O)NCCc2cccs2)cc1,1.64% (inactive)
15,CC1CC(C)CN(C(=O)CN2CCN(Cc3ccc(Cl)cc3)C2=O)C1 (centres undefined),-4.58% (inactive)
16,Cc1ccc(N(CC(=O)N2CC(=O)Nc3ccccc32)S(=O)(=O)c2ccc3c(c2)OCCO3)cc1,-11.9% (inactive)
